In patent publication US9352015B2, “Antimicrobial peptides” (priority 2009, dated 2016):
Values after ≈ are worked out from the molar mass of the structure shown. Values joined by “and” are separate entries in the source; they are usually repeats but may differ in a detail not shown here. Equal entries are not always repeated. Where two headings read alike, the source gives them in different places.

Experiments:
[1] = Hemolytic activity against human erythrocytes (HC50 / MHC, microtiter dilution); type: cell-based; settings: human, 1% human erythrocytes, pH 7.4
Experimental: (§1) Hemoglobin release was determined spectrophotometrically at 570 nm. The hemolytic activity was determined as the peptide concentration that caused 50% hemolysis of erythrocytes after 18 h (HC50). […] HC50 was determined by a plot of peptide concentration versus percent lysis.

Acinetobacter baumannii = type: cell-based; settings: for Acinetobacter baumannii MICGM: geometric mean, 11 different isolates, 24 hours at 37° C.
Experimental: (§2) Minimal inhibitory concentrations (MICs) are determined using a standard microtiter dilution method, with 3 sets of determinations, in LB (Luria-Bertani) no-salt medium (10 g of tryptone and 5 g of yeast extract per liter). In some cases, Mueller Hinton (MH) medium or Brain Heart Infusion (BHI) medium is used.
(§3) Briefly, cells were grown overnight at 37° C. in LB and diluted in the same medium. Serial dilutions of the peptides are added to the microtiter plates in a volume of 100 μl followed by 10 μl of bacteria to give a final inoculum of 5×10^5 colony-forming units/ml. Plates are incubated at 37° C. for 24 hours and MICs determined as the lowest peptide concentration that inhibited growth. Alternatively, minimal inhibitory concentrations are determined using a standard microtiter dilution method in a Mueller-Hinton (MH) medium. Briefly, cells are grown overnight at 37° C. in MH broth and diluted in the same medium. In some cases, serial dilutions of the peptides are added to the microtiter plates in a volume of 100 μl followed by 10 μl of bacteria to give a final inoculum of 1×10^5 colony-forming units/ml. Plates are incubated at 37° C. for 24 hours and MICs are determined as the lowest peptide concentration that inhibited growth.
The biological activities of these six peptide analogs was determined against 11 clinical isolated of Acinetobacter baumannii (Table 9). Please note that the activities are reported in micromolar rather than microgram/ml. This allows a direct comparison on a molar basis with the effectiveness of molecules of different molecular weights whether peptides disclosed herein or antibiotics which in general are smaller in molecular mass. […] These are the highest antimicrobial activities observed in studies of antimicrobial peptides derived by modifying the peptide sequence of SEQ ID NO:24 (D1). D22 has the best hemolytic activity of the six analogs (D17-D22) and a therapeutic index of […] compared to […] for D1 (Table 9). D22 has no apparent advantage over D1 as determined in these experiments.

[2] = tested on: Methicillin Resistant Staphylococcus aureus (MRSA) and Staphylococcus aureus; type: cell-based
Experimental: as §2, §3
Identification of Antimicrobial Peptides for Gram-positive Bacteria. In a manner similar to testing against gram-negative bacteria, experiments were carried out to screen the 14 peptides used to identify antimicrobial peptides with significant activity against A. baumanii shown above against 20 different clinical isolates of Methicillin Resistant Staphylococcus aureus (MRSA) and Staphylococcus aureus.

[3] = RP-HPLC retention as measure of overall peptide hydrophobicity; type: physicochemical; settings: pH 2, room temperature
Experimental: Crude and purified peptides were analyzed on an Agilent 1100 series liquid chromatograph (Little Falls, Del.). Runs were performed on a Zorbax 300 SB-C8 column (150×2.1 mm I.D.; 5 μm particle size, 300 Å pore size) from Agilent Technologies using linear AB gradient (1% acetonitrile/min) and a flow rate of 0.25 ml/min, where eluant A was 0.2% aqueous TFA, pH 2 and eluant B was 0.2% TFA in acetonitrile.

[4] = RP-HPLC temperature profiling (peptide self-association parameter PA); type: physicochemical; settings: RP-HPLC temperature profiling 5-80° C., pH 2, relative to control peptide C
Experimental: Temperature profiling analyses were performed on the same column in 3° C. increments, from 5° C. to 80° C., using a linear AB gradient of 0.5% acetonitrile/min, as described previously (30, 53, 92, 93).
Peptide self-association (i.e., the ability to oligomerize/dimerize) in aqueous solution is a very important parameter for antimicrobial activity (53, 92, 93). Without wishing to be bound by any particular theory, the present inventors postulated that monomeric random-coil antimicrobial peptides are best suited to pass through the capsule and cell wall of microorganisms prior to penetration into the cytoplasmic membrane, induction of α-helical structure and disruption of membrane structure to kill target cells (93). Thus, if the self-association ability of a peptide in aqueous media is too strong (e.g., forming stable folded dimers through interaction of their non-polar faces) this could decrease the ability of the peptide to dissociate to monomer, in addition oligomerization of the peptide can prevent it from effectively passing through the capsule and cell wall to reach the membrane. The ability of the peptides in the present study to self-associate was determined by the technique of RP-HPLC temperature profiling at pH 2 (29, 30, 38). The reason pH 2 is used to determine self-association of cationic AMPs is that highly positively charged peptides are frequently not eluted from reversed-phase columns at pH 7 due to non-specific binding to negatively charged silanols on the column matrix. This is not a problem at pH 2 since the silanols are protonated (i.e., neutral) and non-specific electrostatic interactions are eliminated. At pH 2, the interactions between the peptide and the reversed-phase matrix involve ideal retention behavior, i.e., only hydrophobic interactions between the preferred binding domain (nonpolar face) of the amphipathic molecule and the hydrophobic surface of the column matrix are present (39). […] Control peptide C is a monomeric random coil peptide in both aqueous and hydrophobic media; thus, its linear decrease in peptide retention behavior with increasing temperature within the range of 5° C. to 80° C. represents only the general effects of temperature due to greater solute diffusivity and enhanced mass transfer between the stationary and mobile phase at higher temperatures (55). To allow for these general temperature effects, the data for the control peptide was subtracted from each temperature profile as shown in FIG. 2B. Thus, the peptide self-association parameter, PA, represents the maximum change in peptide retention time relative to the random coil peptide C. Note that the higher the PA value, the greater the self-association.

Pseudomonas aeruginosa = settings: for MIC PAO 1: 37° C., 24 h, strain PAO1; for MIC GM (geometric mean of the MIC values): six P. aeruginosa strains; for MIC CP 204: strain CP204; for MIC M 2: strain M2; for MIC PA 14: strain PA14; for MIC PAK: strain PAK; for MIC WR 5: strain WR5; for Pseudomonas aeruginosa MICGM: geometric mean, 6 different isolates, 24 hours at 37° C.
human erythrocytes = experiment: Hemolytic activity against human erythrocytes (HC50 / MHC, microtiter dilution); type: cell-based
Experimental: as §1

Row | SMILES | HC50 at 18 h [1] | MIC GM (geometric mean) (Acinetobacter baumannii) [µM] | Acinetobacter baumannii MICGM (Acinetobacter baumannii) [µM] | MIC GM (geometric mean) [2] [µM] | Hydrophobicity (retention time in RP-HPLC) [3] | PA (dimerization / self-association parameter) [4] | MIC PAO 1 (Pseudomonas aeruginosa; Brain Heart Infusion medium) [µg/mL] | MIC GM (geometric mean of the MIC values) (Pseudomonas aeruginosa; Brain Heart Infusion medium) [µg/mL] | MIC CP 204 (Pseudomonas aeruginosa; Brain Heart Infusion medium) [µg/mL] | MIC M 2 (Pseudomonas aeruginosa; Brain Heart Infusion medium) [µg/mL] | MIC PA 14 (Pseudomonas aeruginosa; Brain Heart Infusion medium) [µg/mL] | MIC PAK (Pseudomonas aeruginosa; Brain Heart Infusion medium) [µg/mL] | MIC WR 5 (Pseudomonas aeruginosa; Brain Heart Infusion medium) [µg/mL] | MIC PAO 1 (Pseudomonas aeruginosa; Mueller Hinton medium) [µg/mL] | MIC GM (geometric mean of the MIC values) (Pseudomonas aeruginosa; Mueller Hinton medium) [µg/mL] | MIC CP 204 (Pseudomonas aeruginosa; Mueller Hinton medium) [µg/mL] | MIC M 2 (Pseudomonas aeruginosa; Mueller Hinton medium) [µg/mL] | MIC PA 14 (Pseudomonas aeruginosa; Mueller Hinton medium) [µg/mL] | MIC PAK (Pseudomonas aeruginosa; Mueller Hinton medium) [µg/mL] | MIC WR 5 (Pseudomonas aeruginosa; Mueller Hinton medium) [µg/mL] | further results
1 | CC[C@@H](C)[C@@H](NC(=O)[C@@H](C)NC(=O)[C@@H](CCCCN)NC(=O)[C@@H](CC(C)C)NC(=O)[C@@H](CC(C)C)NC(=O)[C@H](NC(=O)[C@@H](CCCCN)NC(=O)[C@@H](CC(C)C)NC(=O)[C@@H](C)NC(=O)[C@@H](CCCCN)NC(=O)[C@@H](CCCCN)NC(=O)[C@@H](CCCCN)NC(=O)[C@@H](C)NC(=O)[C@@H](CCCCN)NC(=O)[C@@H](CO)NC(=O)[C@@H](Cc1ccccc1)NC(=O)[C@H](NC(=O)[C@@H](CCCCN)NC(=O)[C@@H](CC(C)C)NC(=O)[C@@H](Cc1ccccc1)NC(=O)[C@@H](CO)NC(=O)[C@@H](CCCCN)NC(=O)[C@@H](Cc1c[nH]c2ccccc12)NC(=O)[C@@H](CCCCN)NC(C)=O)[C@H](C)O)[C@H](C)O)C(=O)N[C@H](CO)C(=O)N[C@H](CCCCN)C(N)=O [Peptide D22, Ac-KWKSFLKTFSKAKKKALKTLLKAISK-amide] | 249 µg/mL and 81.3 µM | 0.8 (≈ 2.45 µg/mL) | 0.8 | 12.1 (≈ 37.1 µg/mL) | 90.7 min and 90.67 min | 5.13 | 15.6 (≈ 5.09 µM) | 9.8 | 31.3 (≈ 10.2 µM) | 3.9 (≈ 1.27 µM) | 3.9 (≈ 1.27 µM) | 7.8 (≈ 2.55 µM) | 15.6 (≈ 5.09 µM) | 3.9 (≈ 1.27 µM) | 7.0 | 31.3 (≈ 10.2 µM) | 15.6 (≈ 5.09 µM) | 0.5 (≈ 0.163 µM) | 3.9 (≈ 1.27 µM) | 31.3 (≈ 10.2 µM) | Pseudomonas aeruginosa MICGM (Pseudomonas aeruginosa): 2.3 µM
2 | CC[C@@H](C)[C@@H](NC(=O)[C@@H](C)NC(=O)[C@@H](CCCCN)NC(=O)[C@@H](CC(C)C)NC(=O)[C@@H](CC(C)C)NC(=O)[C@H](NC(=O)[C@@H](CCCCN)NC(=O)[C@@H](CC(C)C)NC(=O)[C@@H](C)NC(=O)[C@@H](CCCCN)NC(=O)[C@@H](CCCCN)NC(=O)[C@@H](CCCCN)NC(=O)[C@@H](C)NC(=O)[C@@H](CCCCN)NC(=O)[C@@H](CO)NC(=O)[C@@H](Cc1ccccc1)NC(=O)[C@H](NC(=O)[C@@H](CCCCN)NC(=O)[C@@H](CC(C)C)NC(=O)[C@@H](Cc1ccccc1)NC(=O)[C@@H](CO)NC(=O)[C@@H](CCCCN)NC(=O)[C@@H](Cc1c[nH]c2ccccc12)NC(=O)[C@@H](CO)NC(C)=O)[C@H](C)O)[C@H](C)O)C(=O)N[C@H](CO)C(=O)N[C@H](CCCCN)C(N)=O [Peptide D21, Ac-SWKSFLKTFSKAKKKALKTLLKAISK-amide] | 88.5 µg/mL and 29.3 µM | 1.1 (≈ 3.33 µg/mL) | – | 7.3 (≈ 22.1 µg/mL) | 93.77 min | 6.00 | 15.6 (≈ 5.16 µM) | 6.2 | 15.6 (≈ 5.16 µM) | 3.9 (≈ 1.29 µM) | 3.9 (≈ 1.29 µM) | 3.9 (≈ 1.29 µM) | 3.9 (≈ 1.29 µM) | 7.8 (≈ 2.58 µM) | 6.2 | 15.6 (≈ 5.16 µM) | 15.6 (≈ 5.16 µM) | 0.5 (≈ 0.165 µM) | 3.9 (≈ 1.29 µM) | 15.6 (≈ 5.16 µM) | –
3 | CC(=O)N[C@H](CCCCN)C(=O)N[C@H](CC(C)C)C(=O)N[C@H](CCCCN)C(=O)N[C@H](CO)C(=O)N[C@H](CC(C)C)C(=O)N[C@H](CC(C)C)C(=O)N[C@H](CCCCN)C(=O)N[C@@H](C(=O)N[C@H](CC(C)C)C(=O)N[C@H](CO)C(=O)N[C@H](CCCCN)C(=O)N[C@H](CC(C)C)C(=O)N[C@H](CCCCN)C(=O)N[C@H](CCCCN)C(=O)N[C@H](CCCCN)C(=O)N[C@H](CCCCN)C(=O)N[C@H](CC(C)C)C(=O)N[C@H](CCCCN)C(=O)N[C@@H](C(=O)N[C@H](CC(C)C)C(=O)N[C@H](CC(C)C)C(=O)N[C@H](CCCCN)C(=O)N[C@H](C)C(=O)N[C@H](CC(C)C)C(=O)N[C@H](CO)C(=O)N[C@H](CCCCN)C(N)=O)[C@H](C)O)[C@H](C)O [Peptide D23, Ac-KLKSLLKTLSKLKKKKLKTLLKALSK-amide] | – | – | 0.8 | – | – | – | – | – | – | – | – | – | – | – | – | – | – | – | – | – | Hemolytic activity HC50 (human erythrocytes): 186 µM; Pseudomonas aeruginosa MICGM (Pseudomonas aeruginosa): 2 µM
4 | CC[C@@H](C)[C@@H](NC(=O)[C@@H](C)NC(=O)[C@@H](CO)NC(=O)[C@@H](CC(C)C)NC(=O)[C@@H](CC(C)C)NC(=O)[C@H](NC(=O)[C@@H](CCCCN)NC(=O)[C@@H](CC(C)C)NC(=O)[C@@H](C)NC(=O)[C@@H](CCCCN)NC(=O)[C@@H](CCCCN)NC(=O)[C@@H](CCCCN)NC(=O)[C@@H](C)NC(=O)[C@@H](CCCCN)NC(=O)[C@@H](CO)NC(=O)[C@@H](Cc1ccccc1)NC(=O)[C@H](NC(=O)[C@@H](CCCCN)NC(=O)[C@@H](CC(C)C)NC(=O)[C@@H](Cc1ccccc1)NC(=O)[C@@H](CO)NC(=O)[C@@H](CO)NC(=O)[C@@H](Cc1c[nH]c2ccccc12)NC(=O)[C@@H](CO)NC(C)=O)[C@H](C)O)[C@H](C)O)C(=O)N[C@H](CO)C(=O)N[C@H](CO)C(N)=O [Peptide D18, Ac-SWSSFLKTFSKAKKKALKTLLSAISS-amide] | 55 µg/mL and 19 µM | 0.9 (≈ 2.61 µg/mL) | – | 17.1 (≈ 49.6 µg/mL) | 97.87 min | 7.21 | 10.4 (≈ 3.59 µM) | 14.7 | 41.7 (≈ 14.4 µM) | 10.4 (≈ 3.59 µM) | 10.4 (≈ 3.59 µM) | 10.4 (≈ 3.59 µM) | 20.8 (≈ 7.17 µM) | 7.8 (≈ 2.69 µM) | 9.8 | 15.6 (≈ 5.38 µM) | 7.8 (≈ 2.69 µM) | 7.8 (≈ 2.69 µM) | 7.8 (≈ 2.69 µM) | 15.6 (≈ 5.38 µM) | –
